This note sets out measurements from paper PMC6016456, “Human DHEA sulfation requires direct interaction between PAPS synthase 2 and DHEA sulfotransferase SULT2A1” (The Journal of Biological Chemistry, 2018).

The experiment concerns the target T1, SULT2A1 (Homo sapiens, UniProt Q06520).
T1 construct: expressed from a SULT2A1 vector in HEK293 cells, co-expressed with PAPS synthase EGFP fusions
T1 sequence (Q06520 1-285): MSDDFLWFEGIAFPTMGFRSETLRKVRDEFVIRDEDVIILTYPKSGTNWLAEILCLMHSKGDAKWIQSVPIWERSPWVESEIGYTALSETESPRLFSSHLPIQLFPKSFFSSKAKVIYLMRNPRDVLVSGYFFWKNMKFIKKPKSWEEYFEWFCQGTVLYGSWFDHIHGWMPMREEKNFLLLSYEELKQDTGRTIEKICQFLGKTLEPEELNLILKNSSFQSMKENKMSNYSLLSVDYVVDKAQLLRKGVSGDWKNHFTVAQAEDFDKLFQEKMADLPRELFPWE
Put plainly: DHEA sulfation assay in transfected HEK293 cells. The experiment is classed as cell-based. To be noted: co-expressed PAPS synthase supplies PAPS.

`C[C@]12CC[C@H](O)CC1=CC[C@@H]1[C@@H]2CC[C@]2(C)C(=O)CC[C@@H]12` [DHEA]: the conversion rate entry is listed as “co-express PAPS synthase protein variants with cytoplasmic SULT2A1”.
